Data as given in ChEMBL document CHEMBL1129013, “Benzopyran selective estrogen receptor modulators (SERMs): Pharmacological effects and structural correlation with raloxifene” (1996).

Tests used:
Rattus norvegicus [1] = assay: Reduction in body weight in rat model at dose 0.1 mg/kg (p.o.); type: functional; settings: route oral
Rattus norvegicus [2] = assay: Reduction in uterine weight in rat model at dose 0.1 mg/kg (p.o.); type: functional; settings: route oral
Rattus norvegicus [3] = assay: Reduction in serum cholesterol in rat model at dose 0.1 mg/kg (p.o.); type: functional, organism-based; set-up: dose 0.1 mg/kg
Rattus norvegicus [4] = assay: Reduction in body weight in rat model at dose 0.01 mg/kg (p.o.); type: functional; settings: route oral
Rattus norvegicus [5] = assay: Reduction in uterine weight in rat model at dose 10.0 mg/kg (p.o.); type: functional; settings: route oral
Rattus norvegicus [6] = assay: Reduction in serum cholesterol in rat model at dose 0.01 mg/kg (p.o.); type: functional, organism-based; set-up: dose 0.01 mg/kg
Rattus norvegicus [7] = assay: Reduction in body weight in rat model at dose 1.0 mg/kg (p.o.); type: functional; settings: route oral
Rattus norvegicus [8] = assay: Reduction in serum cholesterol in rat model at dose 10.0 mg/kg (p.o.); type: functional, organism-based; set-up: dose 10 mg/kg
Rattus norvegicus [9] = assay: Reduction in uterine weight in rat model at dose 1.0 mg/kg (p.o.); type: functional; settings: route oral
Rattus norvegicus [10] = assay: Reduction in body weight in rat model at dose 10.0 mg/kg (p.o.); type: functional; settings: route oral
Rattus norvegicus [11] = assay: Reduction in uterine weight in rat model at dose 0.01 mg/kg (p.o.); type: functional; settings: route oral
Rattus norvegicus [12] = assay: Reduction in serum cholesterol in rat model at dose 1.0 mg/kg (p.o.); type: functional, organism-based; set-up: dose 1 mg/kg

Row | Compound | Body weight (Rattus norvegicus [1]) | Uterine weight (Rattus norvegicus [2]) | Serum cholesterol (Rattus norvegicus [3]) | Body weight (Rattus norvegicus [4]) | Uterine weight (Rattus norvegicus [5]) | Serum cholesterol (Rattus norvegicus [6]) | Body weight (Rattus norvegicus [7]) | Serum cholesterol (Rattus norvegicus [8]) | Uterine weight (Rattus norvegicus [9]) | Body weight (Rattus norvegicus [10]) | Uterine weight (Rattus norvegicus [11]) | Serum cholesterol (Rattus norvegicus [12])
1 | C#C[C@]1(O)CC[C@H]2[C@@H]3CCc4cc(O)ccc4[C@H]3CC[C@@]21C [ETHINYL ESTRADIOL] | 274 g | 319 mg | 37.1 mg/dL | – | – | – | – | – | – | – | – | –
2 | CC1=C(c2ccc(O)cc2)C(c2ccc(OCCN3CCCCC3)cc2)Oc2cc(O)ccc21 (configuration not stated) | 281 g | 160.2 mg | 69.8 mg/dL | 306 g | 135.2 mg | 79 mg/dL | 295 g | 57.4 mg/dL | 134.2 mg | 302 g | 128.2 mg | 42.3 mg/dL
3 | Oc1ccc(C2=Cc3ccc(O)cc3OC2c2ccc(OCCN3CCCCC3)cc2)cc1 (configuration not stated) | 314 g | 132.2 mg | 69.3 mg/dL | 334 g | 124.2 mg | 92.1 mg/dL | 287 g | 53 mg/dL | 151 mg | 284 g | 105.7 mg | 52.6 mg/dL
